According to patent US20030237103A1, “Methods and compositions for pharmacological and toxicological evaluation of test agents” (priority 2002, published 2003):

Experiments:
[1] = test system: Panel and outbred (CD-IGS) rat strains; test: Clinical chemistry endpoints of cisplatin-treated vs. vehicle rats; format: in vivo; set-up: T-test value AST / T-test value ALT: unit not given here; conditions: cisplatin 5 mg/Kg vs. vehicle
[2] = test system: Panel and outbred (CD-IGS) rat strains; test: Proteinuria, glucose excretion and renal histology after cisplatin; format: in vivo; conditions: 5 mg/Kg cisplatin
[3] = test system: Panel, CD-IGS and parental rat strains; test: Plasma triglyceride lowering by clofibrate; format: in vivo; conditions: between WKY×LEW, WKY×BN and WKY×F344; 250 mg/Kg
Experimental: Triglyceride levels in plasma were measured following euthanasia on day 7. Plotted are the percent differences in triglyceride values in a particular drug treatment group.

[4] = test system: Panel, CD-IGS and parental rat strains; conditions: in vivo, 250 mg/kg
Experimental: Alanine transferase (ALT) levels in plasma an index of liver damage were measured in outbred and inbred strains (top panel) and the Panel F1 hybrids (bottom panel) following euthanasia on day 7. Plotted are the average ALT values for drug (left) and vehicle (right) within a particular drug treatment group (designated by strain). The number of animals tested in each group is denoted below the strain designation in parenthesis as # drug treated animas/#vehicle treated animals.
We delivered the clofibrate orally by gavage (250 mg/Kg in hydroxyproply methyl cellulose) to the rats on 6 consecutive days.

[5] = test system: rat liver peroxisomal fatty-acyl CoA oxidase; test: Fluorometric assay of liver peroxisomal fatty-acyl CoA oxidase (FAO) activity after clofibrate; format: in vivo; conditions: CD-IGS rats
Experimental: Peroxisomal fractions from livers of each strain were measured for FAO activity. In order to account for intra-strain variability, graphed are the average values derived by subtracting the vehicle FAO (average) from each individual drug induced FAO. The y-axis represents the FAO activity (nmol H2O2 per minute-mg peroximal protein).
The assay was done by using a fluorometric assay for rat liver peroxisomal fafty-acyl CoA oxidase activity (FAO). The first step of this assay uses a palmitoyl-CoA dependent NAD+ reducing system to oxidize FAO and produce H2O2. The H2O2 is then coupled in a peroxidase catalyzed reaction to the oxidation of scopoletin, a naturally fluorescent compound. A fall in fluorescence of the sample indicates an increase in FAO activity which subsequently reflects the increase in the fatty acid oxidase in the liver.
Six clofibrate samples and four vehicle samples were individually tested for FAO activity in duplicate tests. Using an H2O2 standard curve enables the change in fluorescence to be converted to FAO activity units (Walusimbi-Kisitu, M. and E. H. Harrison, J. Lipid Res. 24(8):1077-1084, 1983).

[6] = test system: Panel, CD-IGS and parental rat strains; test: Liver histology after clofibrate; format: in vivo
From the text: Hypolipidemic drugs, such as clofibrate, commonly induce peroxisomal proliferation and an increase in the activity of peroxisomal beta-oxidation pathway. We looked for these changes in our rats by histological analysis of a section of the left lateral lobe from livers of either clofibrate or vehicle treated rats. While we could detect cellular differences (e.g. hepatocelluar hypertrophy, hepatocellular vacuolization, anisokaryosis and portal lymphocytic infiltrates) among the clofibrate treated livers versus the vehicle controls within any strain.

SMILES: N.N.[Cl][Pt][Cl] [cisplatin]
- T-test value ALB ([1]; BNxF344 rats): 0.111
- T-test value ALP ([1]; BNxF344 rats): 0.157
- T-test value ALT ([1]; BNxF344 rats): 0.600
- T-test value ANION GAP ([1]; BNxF344 rats): 0.069
- T-test value AST ([1]; BNxF344 rats): 0.780
- T-test value BICARB ([1]; BNxF344 rats): 0.003
- T-test value BUN ([1]; BNxF344 rats): 0.002
- T-test value CA ([1]; BNxF344 rats): 0.642
- T-test value CHOL ([1]; BNxF344 rats): 0.001
- T-test value CREAT ([1]; BNxF344 rats): 0.001
- T-test value GGT ([1]; BNxF344 rats): 0.351
- T-test value GLOB ([1]; BNxF344 rats): 0.116
- T-test value GLU ([1]; BNxF344 rats): 0.477
- T-test value K ([1]; BNxF344 rats): 0.133
- T-test value NA ([1]; BNxF344 rats): 0.851
- T-test value PHOS ([1]; BNxF344 rats): 0.230
- T-test value TBILI ([1]; BNxF344 rats): 0.005
- T-test value TP ([1]; BNxF344 rats): 0.877
- T-test value TRIG ([1]; BNxF344 rats): 0.153
- T-test value ALB ([1]; CD-IGS rats): 0.096
- T-test value ALP ([1]; CD-IGS rats): 0.567
- T-test value ALT ([1]; CD-IGS rats): 0.732
- T-test value ANION GAP ([1]; CD-IGS rats): 0.440
- T-test value AST ([1]; CD-IGS rats): 0.433
- T-test value BICARB ([1]; CD-IGS rats): 0.436
- T-test value BUN ([1]; CD-IGS rats): 0.003
- T-test value CA ([1]; CD-IGS rats): 0.268
- T-test value CHOL ([1]; CD-IGS rats): 0.393
- T-test value CREAT ([1]; CD-IGS rats): 0.002
- T-test value GGT ([1]; CD-IGS rats): 0.351
- T-test value GLOB ([1]; CD-IGS rats): 0.750
- T-test value GLU ([1]; CD-IGS rats): 0.965
- T-test value K ([1]; CD-IGS rats): 0.465
- T-test value NA ([1]; CD-IGS rats): 0.095
- T-test value PHOS ([1]; CD-IGS rats): 0.943
- T-test value TBILI ([1]; CD-IGS rats): 0.742
- T-test value TP ([1]; CD-IGS rats): 0.080
- T-test value TRIG ([1]; CD-IGS rats): 0.133
- T-test value ALB ([1]; LEWxBN rats): 0.000
- T-test value ALP ([1]; LEWxBN rats): 0.001
- T-test value ALT ([1]; LEWxBN rats): 0.593
- T-test value ANION GAP ([1]; LEWxBN rats): 0.058
- T-test value AST ([1]; LEWxBN rats): 0.341
- T-test value BICARB ([1]; LEWxBN rats): 0.016
- T-test value BUN ([1]; LEWxBN rats): 0.000
- T-test value CA ([1]; LEWxBN rats): 0.333
- T-test value CHOL ([1]; LEWxBN rats): 0.000
- T-test value CREAT ([1]; LEWxBN rats): 0.000
- T-test value GGT ([1]; LEWxBN rats): 0.339
- T-test value GLOB ([1]; LEWxBN rats): 0.007
- T-test value GLU ([1]; LEWxBN rats): 0.024
- T-test value K ([1]; LEWxBN rats): 0.036
- T-test value NA ([1]; LEWxBN rats): 0.230
- T-test value PHOS ([1]; LEWxBN rats): 0.063
- T-test value TBILI ([1]; LEWxBN rats): 0.463
- T-test value TP ([1]; LEWxBN rats): 0.148
- T-test value TRIG ([1]; LEWxBN rats): 0.085
- T-test value ALB ([1]; LEWxF344 rats): 0.534
- T-test value ALP ([1]; LEWxF344 rats): 0.214
- T-test value ALT ([1]; LEWxF344 rats): 0.979
- T-test value ANION GAP ([1]; LEWxF344 rats): 0.711
- T-test value AST ([1]; LEWxF344 rats): 0.739
- T-test value BICARB ([1]; LEWxF344 rats): 0.596
- T-test value BUN ([1]; LEWxF344 rats): 0.000
- T-test value CA ([1]; LEWxF344 rats): 0.448
- T-test value CHOL ([1]; LEWxF344 rats): 0.000
- T-test value CREAT ([1]; LEWxF344 rats): 0.000
- T-test value GLOB ([1]; LEWxF344 rats): 0.361
- T-test value GLU ([1]; LEWxF344 rats): 0.695
- T-test value K ([1]; LEWxF344 rats): 0.152
- T-test value NA ([1]; LEWxF344 rats): 0.738
- T-test value PHOS ([1]; LEWxF344 rats): 0.831
- T-test value TBILI ([1]; LEWxF344 rats): 0.663
- T-test value TP ([1]; LEWxF344 rats): 0.492
- T-test value TRIG ([1]; LEWxF344 rats): 0.540
- T-test value ALB ([1]; Panel (all six strains)): 0.000
- T-test value ALP ([1]; Panel (all six strains)): 0.000
- T-test value ALT ([1]; Panel (all six strains)): 0.693
- T-test value ANION GAP ([1]; Panel (all six strains)): 0.014
- T-test value AST ([1]; Panel (all six strains)): 0.227
- T-test value BICARB ([1]; Panel (all six strains)): 0.000
- T-test value BUN ([1]; Panel (all six strains)): 0.000
- T-test value CA ([1]; Panel (all six strains)): 0.974
- T-test value CHOL ([1]; Panel (all six strains)): 0.000
- T-test value CREAT ([1]; Panel (all six strains)): 0.000
- T-test value GGT ([1]; Panel (all six strains)): 0.024
- T-test value GLOB ([1]; Panel (all six strains)): 0.016
- T-test value GLU ([1]; Panel (all six strains)): 0.561
- T-test value K ([1]; Panel (all six strains)): 0.000
- T-test value NA ([1]; Panel (all six strains)): 0.414
- T-test value PHOS ([1]; Panel (all six strains)): 0.004
- T-test value TBILI ([1]; Panel (all six strains)): 0.027
- T-test value TP ([1]; Panel (all six strains)): 0.487
- T-test value TRIG ([1]; Panel (all six strains)): 0.058
- T-test value ALB ([1]; WKYxBN rats): 0.337
- T-test value ALP ([1]; WKYxBN rats): 0.956
- T-test value ALT ([1]; WKYxBN rats): 0.222
- T-test value ANION GAP ([1]; WKYxBN rats): 0.485
- T-test value AST ([1]; WKYxBN rats): 0.189
- T-test value BICARB ([1]; WKYxBN rats): 0.649
- T-test value BUN ([1]; WKYxBN rats): 0.001
- T-test value CA ([1]; WKYxBN rats): 0.064
- T-test value CHOL ([1]; WKYxBN rats): 0.000
- T-test value CREAT ([1]; WKYxBN rats): 0.002
- T-test value GGT ([1]; WKYxBN rats): 0.170
- T-test value GLOB ([1]; WKYxBN rats): 0.007
- T-test value GLU ([1]; WKYxBN rats): 0.968
- T-test value K ([1]; WKYxBN rats): 0.014
- T-test value NA ([1]; WKYxBN rats): 0.165
- T-test value PHOS ([1]; WKYxBN rats): 0.081
- T-test value TBILI ([1]; WKYxBN rats): 0.379
- T-test value TP ([1]; WKYxBN rats): 0.458
- T-test value TRIG ([1]; WKYxBN rats): 0.210
- T-test value ALB ([1]; WKYxF344 rats): 0.001
- T-test value ALP ([1]; WKYxF344 rats): 0.000
- T-test value ALT ([1]; WKYxF344 rats): 0.604
- T-test value ANION GAP ([1]; WKYxF344 rats): 0.868
- T-test value AST ([1]; WKYxF344 rats): 0.934
- T-test value BICARB ([1]; WKYxF344 rats): 0.004
- T-test value BUN ([1]; WKYxF344 rats): 0.000
- T-test value CA ([1]; WKYxF344 rats): 0.037
- T-test value CHOL ([1]; WKYxF344 rats): 0.004
- T-test value CREAT ([1]; WKYxF344 rats): 0.000
- T-test value GLOB ([1]; WKYxF344 rats): 0.007
- T-test value GLU ([1]; WKYxF344 rats): 0.155
- T-test value K ([1]; WKYxF344 rats): 0.583
- T-test value NA ([1]; WKYxF344 rats): 0.872
- T-test value PHOS ([1]; WKYxF344 rats): 0.282
- T-test value TBILI ([1]; WKYxF344 rats): 0.008
- T-test value TP ([1]; WKYxF344 rats): 0.054
- T-test value TRIG ([1]; WKYxF344 rats): 0.041
- T-test value ALB ([1]; WKYxLEW rats): 0.453
- T-test value ALP ([1]; WKYxLEW rats): 0.342
- T-test value ALT ([1]; WKYxLEW rats): 0.874
- T-test value ANION GAP ([1]; WKYxLEW rats): 0.033
- T-test value AST ([1]; WKYxLEW rats): 0.689
- T-test value BICARB ([1]; WKYxLEW rats): 0.266
- T-test value BUN ([1]; WKYxLEW rats): 0.009
- T-test value CA ([1]; WKYxLEW rats): 0.870
- T-test value CHOL ([1]; WKYxLEW rats): 0.019
- T-test value CREAT ([1]; WKYxLEW rats): 0.025
- T-test value GGT ([1]; WKYxLEW rats): 0.363
- T-test value GLOB ([1]; WKYxLEW rats): 0.057
- T-test value GLU ([1]; WKYxLEW rats): 0.289
- T-test value K ([1]; WKYxLEW rats): 0.137
- T-test value NA ([1]; WKYxLEW rats): 1.000
- T-test value PHOS ([1]; WKYxLEW rats): 0.055
- T-test value TBILI ([1]; WKYxLEW rats): 0.364
- T-test value TP ([1]; WKYxLEW rats): 0.008
- T-test value TRIG ([1]; WKYxLEW rats): 0.677
- degree of proteinuria, glucose excretion and histologic damage to renal proximal tubules between the strains [2]: marked differences

SMILES: CCOC(=O)C(C)(C)Oc1ccc(Cl)cc1 [clofibrate]
- variation in magnitude of the fall in plasma triglyceride levels [3]: 3 fold
- AST levels (predictor of liver toxicity) [4]: not significantly affected
- hepatotoxic effects relative to other strains (FAO activity) [5]: resistant
- liver hypertrophy ([6]; all the strains): hypertrophy of the liver
- histopathology differences between the strains within the Panel ([6]; left lateral lobe sections, clofibrate vs. vehicle): no quantitative differences
